The source of these data is ChEMBL document CHEMBL1201862, “PubChem BioAssay data set” (2004).

Values joined by “and” are separate entries in the source; they are usually repeats but may differ in a detail not shown here. Identical values can stand only once. Counter-ions that a name gives are not always drawn.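 All cell lines were grown in 96-well plates and treated with compound for 48 hours. GI50 marks 50% less growth.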 Active and inactive are the calls of the source. Cut-off read from the data, not from the text of the source: active = GI50 up to about 1.1 µM and inactive = higher.

Among the test systems are BT-549; CAKI-1; DMS-114; DU-145; Hs-578T; KM12; M14; MDA-MB-231; RXF 393; SF-295; SK-MEL-2; SK-MEL-5; SK-OV-3; SN12C; SNB-78; SW-620; UACC-62; UO-31; CCRF-CEM; MCF7.
Holding throughout (assay): NCI tumour cell line growth inhibition, 48 h

Turning to `COC1C(O)CC(OC2CC(OC3CC(O[C@@H]4C(=O)c5c(cc6cc(OC7CC(OC8CC(O)C(O)C(C)O8)C(O)C(C)O7)c(C)c(O)c6c5O)C[C@H]4[C@H](OC)C(=O)[C@@H](O)[C@@H](C)O)OC(C)C3O)OC(C)C2O)OC1C` (some centres not stated), the GI50 with BT-549 was < 0.01 µM (active); with CAKI-1 it was 0.356 µM (active); in the assay with DMS-114, 0.0272 µM (active); in the assay on DU-145, < 0.01 µM (active); in the assay on Hs-578T, < 0.01 µM (active); in the assay on KM12, 0.0168 µM (active). Besides, the GI50 in the assay with M14 is 0.0267 µM (active); in the assay with MDA-MB-231, 0.0574 µM (active); in the assay on RXF 393, < 0.01 µM (active); in the assay on SF-295, < 0.0173 µM (active); with SK-MEL-2 it was < 0.0129 µM (active); with SK-MEL-5, < 0.0138 µM (active). Also, the GI50 in the assay with SK-OV-3 is < 0.0236 µM (active); in the assay with SN12C it was < 0.0197 µM (active); in the assay with SNB-78, < 0.01 µM (active); in the assay with SW-620, < 0.0228 µM (active); in the assay with UACC-62 it was < 0.0131 µM (active); with UO-31, 0.0318 µM (active).

Consider `Clc1ccc(C(c2ccccc2Cl)C(Cl)Cl)cc1` (configuration not stated) [MITOTANE], for which the GI50 is 1.59 µM (inactive) in the assay with BT-549; 13.1 µM (inactive) in the assay on CAKI-1; 17.7 µM (inactive) with CCRF-CEM; 18.5 µM (inactive) in the assay with DMS-114; 3.3 µM (inactive) in the assay on DU-145; 3.26 µM (inactive) with Hs-578T. The GI50 in the assay on KM12 was 16 µM (inactive); in the assay on M14 it was 19.3 µM (inactive); in the assay with MCF7, 19.2 µM (inactive); in the assay with MDA-MB-231, 3.39 µM (inactive); in the assay with RXF 393 it was 11.6 µM (inactive); in the assay with SF-295, 16.2 µM (inactive). Besides, the GI50 was 18.3 µM (inactive) with SK-MEL-2; 15.8 µM (inactive) in the assay on SK-MEL-5; 18.1 µM (inactive) in the assay on SK-OV-3; 16.7 µM (inactive) in the assay on SN12C; 20.7 µM (inactive) with SNB-78; 18 µM (inactive) in the assay on SW-620. Further, the GI50 in the assay with UACC-62 is 14.8 µM (inactive); with UO-31, 16.9 µM (inactive).

Turning to `COc1cccc2c1[C@]1(O)C(O)CCCC21` (some centres not stated), the GI50 with CAKI-1, in the assay with CCRF-CEM, in the assay on DMS-114, in the assay on KM12, in the assay with M14 and in the assay on RXF 393 was > 100 µM (inactive) in each case. For the same compound, the GI50 with SF-295, in the assay with SK-MEL-2, with SK-MEL-5, in the assay on SK-OV-3, in the assay on SN12C and with SNB-78 was > 100 µM (inactive) each time. Moreover, the GI50 in the assay with SW-620, in the assay with UACC-62 and in the assay on UO-31 was > 100 µM (inactive) each time.

As for `CN(C)CCCN1c2ccccc2Sc2ccc(C(F)(F)F)cc21` [TRIFLUPROMAZINE HYDROCHLORIDE], the GI50 is 12.8 µM (inactive) in the assay with BT-549; 11.8 µM (inactive) in the assay with CAKI-1; 20.3 µM (inactive) and 16.1 µM (inactive) in the assay on CCRF-CEM; 18.2 µM (inactive) with DMS-114; 17.2 µM (inactive) in the assay on DU-145; 14.1 µM (inactive) in the assay with Hs-578T. Besides, the GI50 is 17.2 µM (inactive) and 15.1 µM (inactive) in the assay with KM12; 16.1 µM (inactive) in the assay on MCF7; 12.9 µM (inactive) in the assay with MDA-MB-231; 13 µM (inactive) and 16 µM (inactive) with RXF 393; 15.3 µM (inactive) and 16.8 µM (inactive) in the assay with SF-295; 16 µM (inactive) in the assay on SK-MEL-2. Moreover, the GI50 is 17.4 µM (inactive) in the assay on SK-MEL-5; 18.6 µM (inactive) and 16.6 µM (inactive) with SK-OV-3; 16 µM (inactive) and 17.3 µM (inactive) in the assay on SN12C; 15.7 µM (inactive) in the assay on SNB-78; 15.8 µM (inactive) and 17.2 µM (inactive) in the assay on SW-620; 16.6 µM (inactive) and 16.8 µM (inactive) in the assay on UACC-62. The GI50 in the assay with UO-31 was 15.5 µM (inactive) and 14.3 µM (inactive).
